{"source": "patent US5393729A", "about": "“3-aryl-pyrone derivatives” (Bayer Aktiengesellschaft, priority 1992, dated 1995)", "system": "Nippostrongylus", "assay": "Nippostrongylus in vitro (acetylcholine esterase determination)", "set-up": "species or system Nippostrongylus brasiliensis", "conditions": "read-out: inhibition of the enzyme (full activity)", "procedure": "Nippostrongylus are isolated from the small intestine of rats and washed with 0.9% of NaCl supplemented with 29 μg/ml sisomycin and 2 μg/ml of clotrimazole. The actual incubation of in each case 5 male and female Nippostrongylus is carried out in 1.0 ml of medium used for determining the activity of acetylcholine esterase. Enzyme determination is by the method of Rapson et al., 1987 (E. B. Rapson, D. C. Jenkins, A. S. Chilwan), Improved detection of anthelmintic activity in vitro screen utilizing adult Nippostrongylus brasiliensis. Parasitol. Res. 1987 73, 190 to 191.\nThe following key is used for the assessment: 3=full activity, 100% inhibition of the enzyme; 2=good activity, more than 75% inhibition; 1=poor activity, less than 50% inhibition."}
{"smiles": "CCOC(=O)c1c(C)oc(=O)c(-c2c(C)cc(C)cc2C)c1O", "note": "[Example 1]", "values": [{"measurement": "inhibition at 100 ppm", "result": 100, "unit": "%"}]}
